Measurements from patent US8552002B2 (Novartis AG, priority 2004, dated 2013).

How the values were obtained:
Assay type in all cases: biochemical
[1] = molecular target: T1, KDR (Homo sapiens, UniProt P35968); assay: Inhibitory activity against KDR (VEGF-R2), in vitro data of Examples 170 and 207; details: 10 μM; Examples 1 to 169; read-out: KDR inhibition at 10 μM
T1 construct: expressed in transfected cells; host or cells: CHO cells
Summary of the method: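 KDR tyrosine phosphorylation detected by luminescence after overnight 4° C capture of 20 μg lysate protein with PY20:AP antibody. Lysates came from cells given compound for 2 h at 37° C, then final 20 ng/ml VEGF for 5 min; compound-free medium as control.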

[2] = molecular target: T2, FGFR3 (K650E) (Homo sapiens, UniProt P22607, K650E); assay: Recombinant GST-FGFR-3-K650E tyrosine kinase assay (33P into poly(Glu,Tyr)); details: 10 μM; Examples 1 to 169; read-out: FGFR3 (K650E) inhibition at 10 μM
T2 construct: amino acids 411-806 of the cytoplasmic domain of human FGFR-3, N-terminally fused to GST; made in house; host or cells: Sf9 insect cells (baculovirus)

[3] = molecular target: T3, Tek (Homo sapiens, UniProt Q02763); assay: Recombinant GST-Tek (Tie-2) tyrosine kinase assay (33P into poly(Glu,Tyr)); details: Examples 1 to 169
T3 construct: amino acids 773-1124 of the cytoplasmic kinase domain of human Tek, N-terminally fused to GST; made in house; host or cells: Sf9 insect cells (baculovirus)
Summary of the method: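 GST-fused human Tek kinase domain (aa 773-1124), baculovirus-expressed, 150 ng per reaction; 10 μg/mL poly(Glu,Tyr) 4:1, 4.0 μM [γ-33P]ATP, 3 mM MnCl2/3 mM MgCl2, pH 7.5, 30 min at ambient temperature. 33P uptake read on PVDF filters; IC50 by linear regression from four concentrations in duplicate.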

T3 sequence (Q02763 773-1124): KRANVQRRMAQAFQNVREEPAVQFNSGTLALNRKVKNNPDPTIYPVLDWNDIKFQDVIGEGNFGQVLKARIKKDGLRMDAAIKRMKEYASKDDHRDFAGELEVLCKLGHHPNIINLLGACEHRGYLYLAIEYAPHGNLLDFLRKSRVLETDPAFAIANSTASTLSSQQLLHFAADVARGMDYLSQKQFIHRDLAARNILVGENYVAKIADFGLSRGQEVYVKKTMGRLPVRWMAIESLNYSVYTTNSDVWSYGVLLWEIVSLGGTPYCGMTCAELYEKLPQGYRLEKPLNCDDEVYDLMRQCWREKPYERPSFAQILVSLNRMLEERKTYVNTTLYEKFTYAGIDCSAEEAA
T2 sequence (P22607 411-806 K650E): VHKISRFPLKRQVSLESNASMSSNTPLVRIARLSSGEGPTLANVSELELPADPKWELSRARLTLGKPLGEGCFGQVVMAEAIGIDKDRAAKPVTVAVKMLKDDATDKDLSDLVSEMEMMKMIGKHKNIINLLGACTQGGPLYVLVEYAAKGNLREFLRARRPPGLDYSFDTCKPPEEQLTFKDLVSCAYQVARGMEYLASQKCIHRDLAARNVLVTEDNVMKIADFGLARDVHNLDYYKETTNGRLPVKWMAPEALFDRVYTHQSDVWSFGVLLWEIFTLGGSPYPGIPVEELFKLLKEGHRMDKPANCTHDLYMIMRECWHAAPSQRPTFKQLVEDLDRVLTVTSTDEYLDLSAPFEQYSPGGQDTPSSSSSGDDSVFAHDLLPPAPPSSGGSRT
T1 sequence (P35968 20-1356): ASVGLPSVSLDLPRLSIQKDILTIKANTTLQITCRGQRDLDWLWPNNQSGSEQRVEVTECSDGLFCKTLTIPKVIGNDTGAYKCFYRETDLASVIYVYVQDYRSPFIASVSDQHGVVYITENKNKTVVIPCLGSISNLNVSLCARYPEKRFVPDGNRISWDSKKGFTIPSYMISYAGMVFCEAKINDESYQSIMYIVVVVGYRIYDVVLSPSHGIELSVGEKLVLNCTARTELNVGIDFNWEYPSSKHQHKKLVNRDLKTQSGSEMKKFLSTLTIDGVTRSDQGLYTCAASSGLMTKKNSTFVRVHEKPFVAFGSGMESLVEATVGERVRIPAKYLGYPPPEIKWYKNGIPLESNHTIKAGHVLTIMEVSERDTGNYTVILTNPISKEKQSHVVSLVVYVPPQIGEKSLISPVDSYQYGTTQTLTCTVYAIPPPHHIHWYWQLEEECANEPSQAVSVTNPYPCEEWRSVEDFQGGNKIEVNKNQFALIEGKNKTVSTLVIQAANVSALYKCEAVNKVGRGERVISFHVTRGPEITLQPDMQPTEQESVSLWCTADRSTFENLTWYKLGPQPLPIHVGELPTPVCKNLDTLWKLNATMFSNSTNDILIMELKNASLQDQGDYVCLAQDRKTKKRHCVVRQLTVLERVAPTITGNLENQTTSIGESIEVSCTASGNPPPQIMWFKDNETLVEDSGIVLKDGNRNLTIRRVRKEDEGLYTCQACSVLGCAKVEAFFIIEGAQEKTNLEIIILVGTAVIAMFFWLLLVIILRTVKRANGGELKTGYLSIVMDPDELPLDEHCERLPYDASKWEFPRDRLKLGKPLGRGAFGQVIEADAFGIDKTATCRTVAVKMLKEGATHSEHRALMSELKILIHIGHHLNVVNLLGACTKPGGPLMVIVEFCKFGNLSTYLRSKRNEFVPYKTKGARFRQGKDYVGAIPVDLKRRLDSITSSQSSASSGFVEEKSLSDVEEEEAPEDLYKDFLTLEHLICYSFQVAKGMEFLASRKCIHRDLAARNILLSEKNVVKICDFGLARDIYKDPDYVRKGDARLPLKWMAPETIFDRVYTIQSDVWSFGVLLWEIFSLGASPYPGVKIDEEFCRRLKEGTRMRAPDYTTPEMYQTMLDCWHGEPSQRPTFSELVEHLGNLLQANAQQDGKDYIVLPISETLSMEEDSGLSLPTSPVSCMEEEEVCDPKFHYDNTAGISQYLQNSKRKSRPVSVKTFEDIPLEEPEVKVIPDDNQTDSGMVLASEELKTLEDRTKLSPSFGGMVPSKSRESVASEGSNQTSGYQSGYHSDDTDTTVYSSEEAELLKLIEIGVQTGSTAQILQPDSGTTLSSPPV

inhibition at 10 µM [1] | inhibition at 10 µM [2] | inhibition at 10 µM [3] | Compound
67 to 100% | 27 to 100% | 12 to 100% | COc1cc(NC(=O)Nc2cc(Nc3cccc(N4CCN(C)CC4)c3)ncn2)cc(OC)c1 [Example 19, 1-(3,5-Dimethoxy-phenyl)-3-{6-[3-(4-methyl-piperazin-1-yl)-phenyl-amino]-pyrimidin-4-yl}-urea]
67 to 100% | 27 to 100% | 12 to 100% | COc1cc(OC)c(Cl)c(NC(=O)N(C)c2cc(Nc3ccc(OC4CCN(C)CC4)cc3)ncn2)c1Cl [Example 165, 3-(2,6-Dichloro-3,5-dimethoxy-phenyl)-1-methyl-{6-[4-(1-methyl-piperidin-4-yloxy)-phenylamino]-pyrimidin-4-yl}-urea]
67 to 100% | 27 to 100% | 12 to 100% | CCN(C(=O)Nc1c(Cl)c(OC)cc(OC)c1Cl)c1cc(Nc2ccc(N3CCN(C)CC3)cc2)ncn1 [Example 143, 3-(2,6-Dichloro-3,5-dimethoxy-phenyl)-1-ethyl-1-{6-[4-(4-methyl-piperazin-1-yl)-phenylamino]-pyrimidin-4-yl}-urea]
67 to 100% | 27 to 100% | 12 to 100% | CN(C(=O)Nc1cccc(Cl)c1)c1cc(Nc2ccc(F)cc2)ncn1 [Example 122, 3-(3-Chloro-Phenyl)-1-[6-(4-fluoro-phenylamino)-pyrimidin-4-yl]-1-methyl-urea]
67 to 100% | 27 to 100% | 12 to 100% | COc1cc(NC(=O)Nc2cc(Nc3cccc(Cl)c3)ncn2)cc(OC)c1 [Example 139, 1-[6-(3-Chloro-phenylamino)-pyrimidin-4-yl]-3-(3,5-dimethoxy-phenyl)-urea]
67 to 100% | 27 to 100% | 12 to 100% | CN1CCN(c2ccc(Nc3cc(NC(=O)Nc4cc(Cl)cc(Cl)c4)ncn3)cc2)CC1 [Example 10, 1-(3,5-Dichloro-phenyl)-3-{6-[4-(4-methyl-piperazin-1-yl)-phenylamino]-pyrimidin-4-yl}-urea]
67 to 100% | 27 to 100% | 12 to 100% | O=C(Nc1cc(Nc2cccc(Cl)c2)ncn1)Nc1ccccc1F [Example 130, 1-[6-(3-Chloro-phenylamino)-pyrimidin-4-yl]-3-(2-fluoro-phenyl)-urea]
67 to 100% | 27 to 100% | 12 to 100% | CN(C(=O)Nc1cccc(C(F)(F)F)c1)c1cc(Nc2ccc(F)cc2)ncn1 [Example 121, 1-[6-(4-Fluoro-phenylamino)-pyrimidin-4-yl]-1-methyl-3-(3-trifluoro-methyl-phenyl)-urea]
67 to 100% | 27 to 100% | 12 to 100% | O=C(Nc1ccccc1)Nc1cc(Nc2cccc(Cl)c2)ncn1 [Example 141, 1-[6-(3-Chloro-phenylamino)-pyrimidin-4-yl]-3-phenyl-urea]
67 to 100% | 27 to 100% | 12 to 100% | COc1ccc(NC(=O)Nc2cc(Nc3ccc(N4CCN(C)CC4)cc3)ncn2)c(OC)c1 [Example 16, 1-(2,4-Dimethoxy-phenyl)-3-{6-[4-(4-methyl-piperazin-1-yl)-phenyl-amino]-pyrimidin-4-yl}-urea]
67 to 100% | 27 to 100% | 12 to 100% | CCN1CCN(Cc2ccc(Nc3cc(NC(=O)Nc4c(Cl)c(OC)cc(OC)c4Cl)ncn3)cc2C(F)(F)F)CC1 [Example 168, 1-(2,6-Dichloro-3,5-dimethoxy-phenyl)-3-{6-[4-(4-ethyl-piperazin-1-ylmethyl)-3-trifluoromethyl-phenylamino]-pyrimidin-4-yl}-urea]
67 to 100% | 27 to 100% | 12 to 100% | O=C(Nc1cc(Nc2ccc(OCCN3CCOCC3)cc2)ncn1)Nc1c(Cl)cccc1Cl [Example 96, 1-(2,6-Dichloro-phenyl)-3-{6-[4-(2-morpholin-4-yl-ethoxy)-phenylamino]-pyrimidin-4-yl}-urea]
67 to 100% | 27 to 100% | 12 to 100% | COc1ccc(NC(=O)Nc2cc(Nc3cccc(N4CCN(C)CC4)c3)ncn2)c(OC)c1 [Example 17, 1-(2,4-Dimethoxy-phenyl)-3-{6-[3-(4-methyl-piperazin-1-yl)-phenyl-amino]-pyrimidin-4-yl}-urea]
67 to 100% | 27 to 100% | 12 to 100% | CN(C)c1cccc(Nc2cc(N(C)C(=O)Nc3c(Cl)cccc3Cl)ncn2)c1 [Example 120, 3-(2,6-Dichloro-phenyl)-1-[6-(3-dimethylamino-phenylamino)-pyrimidin-4-yl]-1-methyl-urea]
67 to 100% | 27 to 100% | 12 to 100% | O=C(Nc1cc(Nc2cccc(Cl)c2)ncn1)Nc1c(Cl)cccc1Cl [Example 137, 1-[6-(3-Chloro-phenylamino)-pyrimidin-4-yl]-3-(2,6-dichloro-Phenyl)-urea]
67 to 100% | 27 to 100% | 12 to 100% | CCN(CC)CCOc1ccc(Nc2cc(NC(=O)Nc3ccccc3Br)ncn2)cc1 [Example 101, 1-(2-Bromo-phenyl)-3-{6-[4-(2-diethylamino-ethoxy)-phenylamino]-pyrimidin-4-yl}-urea]
67 to 100% | 27 to 100% | 12 to 100% | CNc1cc(NC(=O)Nc2cc(OC)cc(OC)c2Cl)ncn1 [Example 38, 1-(2-Chloro-3,5-dimethoxy-phenyl)-3-(6-methylamino-pyrimidin-4-yl)-urea]
67 to 100% | 27 to 100% | 12 to 100% | COc1ccc(Cl)c(NC(=O)Nc2cc(Nc3cccc(N4CCN(C)CC4)c3)ncn2)c1 [Example 29, 1-(2-Chloro-5-methoxy-phenyl)-3-{6-[3-(4-methyl-piperazin-1-yl)-phenyl-amino]-pyrimidin-4-yl}-urea]
67 to 100% | 27 to 100% | 12 to 100% | CCN(CC)CCOc1ccc(Nc2cc(N(C)C(=O)Nc3cc(OC)cc(OC)c3Cl)ncn2)cc1 [Example 53, 3-(2-Chloro-3,5-dimethoxy-Phenyl)-1-{6-[4-(2-diethylamino-ethoxy)-phenylamino]-pyrimidin-4-yl}-1-methyl-urea]
67 to 100% | 27 to 100% | 12 to 100% | COc1cc(NC(=O)N(C)c2cc(Nc3ccc(C(=O)N4CCN(C)CC4)cc3)ncn2)c(Cl)c(OC)c1 [Example 52, 3-(2-Chloro-3,5-dimethoxy-phenyl)-1-methyl-1-{6-[4-(4-methyl-piperazine-1-carbonyl)-phenylamino]-pyrimidin-4-yl}-urea]
67 to 100% | 27 to 100% | 12 to 100% | CCN(CC)CCCOc1ccc(N(C(=O)Nc2ccccc2Cl)c2cc(N)ncn2)cc1 [Example 95, 1-(6-Amino-pyrimidin-4-yl}-3-(2-chloro-phenyl)-1-[4-(3-diethylamino-propoxy)-phenyl]-urea]
67 to 100% | 27 to 100% | 12 to 100% | COc1ccc(Nc2cc(NC(=O)Nc3c(Cl)cccc3Cl)ncn2)cn1 [Example 112, 1-(2,6-Dichloro-phenyl)-3-[6-(6-methoxy-pyridin-3-ylamino)-pyrimidin-4-yl]-urea]
67 to 100% | 27 to 100% | 12 to 100% | COc1ccc(Cl)c(NC(=O)N(C)c2cc(Nc3cccc(N4CCN(C)CC4)c3)ncn2)c1Cl [Example 60, 3-(2,6-Dichloro-3-methoxy-phenyl)-1-methyl-1-{6-[3-(4-methyl-piperazin-1-yl)-phenylamino]-pyrimidin-4-yl}-urea]
67 to 100% | 27 to 100% | 12 to 100% | COc1cccc(NC(=O)Nc2cc(Nc3ccc(N4CCN(C)CC4)cc3)ncn2)c1 [Example 8, 1-(3-Methoxy-phenyl)-3-{6-[4-(4-methyl-piperazin-1-yl)-phenylamino]-py-rimidin-4-yl}-urea]
67 to 100% | 27 to 100% | 12 to 100% | O=C(Nc1cc(Nc2cccc(Cl)c2)ncn1)Nc1ccccc1Br [Example 129, 1-(2-Bromo-phenyl)-3-[6-(3-chloro-phenylamino)-pyrimidin-4-yl]-urea]
67 to 100% | 27 to 100% | 12 to 100% | CCN1CCN(Cc2cccc(Nc3cc(N(C)C(=O)Nc4c(Cl)c(OC)cc(OC)c4Cl)ncn3)c2)CC1 [Example 150, 3-(2,6-Dichloro-3,5-dimethoxy-phenyl)-1-{6-[3-(4-ethyl-piperazin-1-ylmethyl)-phenylamino]-pyrimidin-4-yl}-1-methyl-urea]
67 to 100% | 27 to 100% | 12 to 100% | CN1CCN(c2ccc(Nc3cc(NC(=O)Nc4ccccc4Cl)ncn3)cc2)CC1 [Example 93, 1-(2-Chloro-phenyl)-3-{6-[4-(4-methyl-piperazin-1-yl)-phenylamino]-pyrimidin-4-yl}-urea]
